Like-named read-outs stand apart in the source and are kept apart here.
System: AMPA receptors
Assay: Excitatory fluxes induced by AMPA in Xenopus oocytes (2-electrode voltage-clamp)
Assay type: cell-based
Conditions: Xenopus oocytes injected with rat cerebral cortex poly-(A+) mRNA, AMPA 10 μM
Procedure: Study of the Excitatory Fluxes Induced by AMPA in Xenopus oocytes
mRNAs are prepared from cerebral cortex of male Wistar rat by the guanidinium thiocyanate/phenol/chloroform method. The poly-(A^+) mRNAs are isolated by chromatography on oligo-dT cellulose and injected in an amount of 50 ng per oocyte. The oocytes are left to incubate for 2 to 3 days at 18° C. to allow expression of the receptors and are then stored at from 8 to 10° C.
Electrophysiological recording is carried out in a Plexiglass® chamber at from 20 to 24° C. in OR2 medium (J. Exp. Zool., 1973, 184, 321-334) by the 2-electrode “voltage-clamp” method, a 3rd electrode being placed in the bath to serve as reference.
All the compounds are administered via the incubation medium and the electric current is measured at the end of the period of administration. AMPA is used at a concentration of 10 μM. For each compound studied, the concentration that doubles (EC2×) or quintuples (EC5×) the intensity of the current induced by AMPA alone (5 to 50 nA) is determined.

In the case of `O=S1(=O)NC2CCCN2c2ccc(OC(=S)Oc3ccccc3)cc21` (centres unmarked) [Example 2, O-(5,5-Dioxido-2,3,3a,4-tetrahydro-1H-pyrrolo[2,1-c][1,2,4]-benzothiadiazin-7-yl)O-phenyl thiocarbonate], the Concentration doubling (EC2×) or quintupling (EC5×) the AMPA current (read-out: EC2× (concentration that doubles the intensity of the current induced by AMPA alone)) is reported as 1.8 µM and the Concentration doubling (EC2×) or quintupling (EC5×) the AMPA current (read-out: EC5× (concentration that quintuples the intensity of the current induced by AMPA alone)) is reported as 9.6 µM.

Reference: US7262189B2, “Benzothiazine and benzothiadiazine derivatives, method for preparing same and pharmaceutical compositions containing same” (Les Laboratoires Server, priority 2001, dated 2007)
